Measurements published in patent publication US8859559B2, “Substituted pyrazines and their use in the treatment of disease” (Boehringer Ingelheim International GmbH, priority 2011, dated 2014).

These compounds were tested against T1, ENaC (Epithelial Sodium Channel) (Mus musculus, UniProt Q61180+Q9WU38+Q9WU39) (assay: Ussing chamber: inhibition of amiloride sensitive short circuit current (I_sc) in M-1 cells). Conditions: mouse kidney M-1 cells.
T1 construct: Mouse kidney M-1 cells were cultivated in DMEM; endogenous in cells; host or cells: Mouse kidney M-1 cells (dexamethasone-treated, on transwell filters)
T1 sequence (Q61180 1-699): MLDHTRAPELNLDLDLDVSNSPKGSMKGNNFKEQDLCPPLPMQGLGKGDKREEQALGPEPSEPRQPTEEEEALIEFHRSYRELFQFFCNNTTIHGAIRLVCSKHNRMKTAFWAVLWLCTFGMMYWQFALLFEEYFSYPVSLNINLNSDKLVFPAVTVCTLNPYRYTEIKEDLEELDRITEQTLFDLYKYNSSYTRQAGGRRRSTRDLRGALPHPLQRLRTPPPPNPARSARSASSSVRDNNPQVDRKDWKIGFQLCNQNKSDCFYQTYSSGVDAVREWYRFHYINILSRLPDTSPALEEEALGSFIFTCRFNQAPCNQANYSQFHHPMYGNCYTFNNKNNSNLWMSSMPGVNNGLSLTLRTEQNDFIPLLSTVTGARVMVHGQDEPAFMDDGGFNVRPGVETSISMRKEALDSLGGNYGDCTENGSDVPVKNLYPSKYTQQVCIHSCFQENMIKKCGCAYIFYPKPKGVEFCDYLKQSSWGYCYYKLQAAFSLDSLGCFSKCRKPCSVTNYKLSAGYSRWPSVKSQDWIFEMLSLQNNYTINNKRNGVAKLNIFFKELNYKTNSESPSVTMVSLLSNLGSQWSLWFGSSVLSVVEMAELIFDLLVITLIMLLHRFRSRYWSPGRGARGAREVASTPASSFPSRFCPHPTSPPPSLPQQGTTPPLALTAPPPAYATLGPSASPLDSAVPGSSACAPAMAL
T1 sequence (Q9WU38 1-638): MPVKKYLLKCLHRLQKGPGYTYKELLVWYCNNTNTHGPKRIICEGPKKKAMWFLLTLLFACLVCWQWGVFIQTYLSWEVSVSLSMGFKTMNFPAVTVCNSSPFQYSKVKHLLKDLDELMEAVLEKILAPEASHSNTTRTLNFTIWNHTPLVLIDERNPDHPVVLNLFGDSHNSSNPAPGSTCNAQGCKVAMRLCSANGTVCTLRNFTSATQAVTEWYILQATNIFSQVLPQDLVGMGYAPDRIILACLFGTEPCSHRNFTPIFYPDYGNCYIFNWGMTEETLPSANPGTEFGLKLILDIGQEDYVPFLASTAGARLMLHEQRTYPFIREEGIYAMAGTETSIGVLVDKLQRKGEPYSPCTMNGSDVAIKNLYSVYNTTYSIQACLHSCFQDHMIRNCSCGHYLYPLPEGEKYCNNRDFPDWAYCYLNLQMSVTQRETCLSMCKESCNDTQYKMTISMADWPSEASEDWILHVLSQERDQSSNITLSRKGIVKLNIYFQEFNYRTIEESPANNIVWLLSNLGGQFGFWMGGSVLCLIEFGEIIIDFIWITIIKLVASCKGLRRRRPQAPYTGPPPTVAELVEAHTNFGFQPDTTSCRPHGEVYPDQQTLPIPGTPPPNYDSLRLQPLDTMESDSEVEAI
T1 sequence (Q9WU39 1-655): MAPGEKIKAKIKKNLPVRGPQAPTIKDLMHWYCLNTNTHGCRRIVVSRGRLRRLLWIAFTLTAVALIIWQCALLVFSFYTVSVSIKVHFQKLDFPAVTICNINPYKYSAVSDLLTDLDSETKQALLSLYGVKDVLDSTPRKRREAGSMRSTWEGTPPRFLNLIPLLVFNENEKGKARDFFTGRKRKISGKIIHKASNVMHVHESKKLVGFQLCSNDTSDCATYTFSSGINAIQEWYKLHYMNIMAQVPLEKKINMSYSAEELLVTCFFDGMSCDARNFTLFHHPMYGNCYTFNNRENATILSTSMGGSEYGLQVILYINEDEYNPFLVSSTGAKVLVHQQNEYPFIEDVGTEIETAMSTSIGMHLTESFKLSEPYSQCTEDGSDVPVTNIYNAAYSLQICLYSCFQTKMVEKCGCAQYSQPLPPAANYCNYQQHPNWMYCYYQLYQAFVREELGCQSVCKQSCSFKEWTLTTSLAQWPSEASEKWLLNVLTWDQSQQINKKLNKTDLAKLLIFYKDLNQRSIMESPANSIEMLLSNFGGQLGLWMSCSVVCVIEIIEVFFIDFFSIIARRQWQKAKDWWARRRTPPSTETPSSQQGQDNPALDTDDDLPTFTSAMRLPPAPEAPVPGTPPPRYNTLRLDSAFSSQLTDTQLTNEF
Assay type: cell-based
Experimental: Mouse kidney M-1 cells were cultivated in DMEM containing 5% FCS and 5 μM dexamethasone for 10 to 12 days on polyester transwell filters. Filters were inserted into a teflon-coated well-plate which fit into the in-house ussing chamber system. Prior to measurement the medium of M-1 cells was replaced with Caco-2 transport buffer (Invitrogen, Germany). During measurements, the Ussing chamber temperature was kept at 37° C. Short circuit currents (I_sc) were measured in the voltage-clamp mode using an in-house built amplifier (Boehringer Ingelheim, Biberach) with the software package Lab View for data acquisition and analysis. The transepithelial electrical resistance (TEER) was determined by the application of voltage steps of ±5 mV every 5 sec. Compounds were administered at a final concentration of 3 μM or at increasing concentrations (1-3-10 μM) to the apical solution. At the end of each experiment the amiloride sensitive I_SC was measured by adding 3 μM amiloride to the apical compartment. Results are expressed as inhibition in percent of the amiloride effect or as IC50. With the example compounds given above, the following IC50 values were determined in the Ussing Chamber assay: […]
`NC(=NC(=O)c1nc(Cl)c(N)nc1N)NC1CCN(Cc2ccc(C(=O)NCCc3cn(CCCO)cn3)cc2)CC1` [Example 1.52] was tested, and the IC50 was 2 nM. In the case of `COC(=O)COc1ccc(CN2CCC(NC(N)=NC(=O)c3nc(Cl)c(N)nc3N)CC2)cc1OCC(=O)OC` [Example 1.53], the IC50 is reported as 7 nM. For `N/C(=N\C(=O)c1nc(Cl)c(N)nc1N)NC1CCN(Cc2ccc(C(=O)NCCOCCO)cc2)CC1` [Example 1.54], the IC50 was 4 nM. `N=C(N)c1ccc(CN2CCC(NC(N)=NC(=O)c3nc(Cl)c(N)nc3N)CC2)cc1` [Example 1.55] showed an IC50 of 2 nM. In the case of `[N-]=[N+]=NCCOCCOCCOCCN(CCOCCOCCO)C(=O)c1ccc(=O)n(Cc2ccc(CN3CCC(NC(N)=NC(=O)c4nc(Cl)c(N)nc4N)CC3)cc2)c1` [Example 1.56], the IC50 is reported as 24 nM. Work on `NC(=NC(=O)c1nc(Cl)c(N)nc1N)NC1CCN(Cc2ccc(CCc3cccnc3)cc2)CC1` [Example 1.57] yielded an IC50 of 5 nM. `COCCOc1ccc(CCc2ccc(CN3CCC(NC(N)=NC(=O)c4nc(Cl)c(N)nc4N)CC3)cc2)nn1` [Example 1.58] showed an IC50 of 7 nM. In the case of `CC(C)(C)OC(=O)c1ccc(CN2CCC[C@H](NC(N)=NC(=O)c3nc(Cl)c(N)nc3N)C2)cc1` [Example 1.59], the IC50 is reported as 227 nM. `NC(=NC(=O)c1nc(Cl)c(N)nc1N)N[C@H]1CCCN(Cc2ccc(C(=O)O)cc2)C1` [Example 1.60] was tested, and the IC50 was 165 nM. `CC(C)(C)OC(=O)c1ccc(CN2CCC[C@@H](NC(N)=NC(=O)c3nc(Cl)c(N)nc3N)C2)cc1` [Example 1.61] showed an IC50 of 47 nM. `NC(=NC(=O)c1nc(Cl)c(N)nc1N)N[C@@H]1CCCN(Cc2ccc(C(=O)O)cc2)C1` [Example 1.62] showed an IC50 of 87 nM. `NC(=NC(=O)c1nc(Cl)c(N)nc1N)NC1CCN(Cc2ccc(S(=O)(=O)NCCO)cc2)CC1` [Example 1.63] was tested, and the IC50 was 6 nM. For `COc1cc(CN2CCC(NC(N)=NC(=O)c3nc(Cl)c(N)nc3N)CC2)cc(C(=O)O)c1` [Example 1.64], the IC50 was 17 nM. `NC(=NC(=O)c1nc(Cl)c(N)nc1N)NC1CCN(Cc2cccc(C(=O)NCCOCCO)c2)CC1` [Example 1.65] gave an IC50 of 4 nM. `COC(=O)COc1ccc(CN2CC(NC(N)=NC(=O)c3nc(Cl)c(N)nc3N)C2)cc1` [Example 1.66] was tested, and the IC50 was 261 nM. `COC(=O)COc1ccc(CN2CCC(N/C(N)=N/C(=O)c3nc(Br)c(N)nc3N)CC2)cc1` [Example 1.68] was tested, and the IC50 was 11 nM. With `N/C(=N\C(=O)c1nc(Cl)c(N)nc1N)NC1CCN(Cc2ccc(C(=O)NCCCS(=O)(=O)O)cc2)CC1` [Example 2.1] the IC50 was 12 nM. Work on `CN(C)CCN(CCN(C)C)C(=O)c1ccc(CN2CCC(NC(N)=NC(=O)c3nc(Cl)c(N)nc3N)CC2)cc1` [Example 2.2] yielded an IC50 of 6 nM. In the case of `C[N+](C)(C)CCNC(=O)c1cccc(CN2CCC(NC(N)=NC(=O)c3nc(Cl)c(N)nc3N)CC2)c1` [Example 2.3], the IC50 is reported as 3 nM. `NC(=NC(=O)c1nc(Cl)c(N)nc1N)NC1CCN(Cc2ccc(C(=O)NCCS(=O)(=O)O)cc2)CC1` [Example 2.4] was tested, and the IC50 was 35 nM. Work on `CN(C)CCNC(=O)Cc1ccc(CN2CCC(NC(N)=NC(=O)c3nc(Cl)c(N)nc3N)CC2)cc1` [Example 2.5] yielded an IC50 of 6 nM. Work on `N/C(=N\C(=O)c1nc(Cl)c(N)nc1N)NC1CCN(Cc2ccc(CCn3cc(CCC(=O)N(CCO)CCO)nn3)cc2)CC1` [Example 3.1] yielded an IC50 of 29 nM. `NC(=NC(=O)c1nc(Cl)c(N)nc1N)NC1CCN(Cc2ccc(CCn3cc(COCCO)nn3)cc2)CC1` [Example 3.2] gave an IC50 of 10 nM. Compound `NC(=NC(=O)c1nc(Cl)c(N)nc1N)NC1CCN(Cc2ccc(CCn3cc(COc4cccc(C(=O)NCCOCCO)c4)nn3)cc2)CC1` [Example 3.3] has an IC50 of 24 nM. For `CN(C)Cc1cn(CCc2ccc(CN3CCC(NC(N)=NC(=O)c4nc(Cl)c(N)nc4N)CC3)cc2)nn1` [Example 3.4], the IC50 was 7 nM. In the case of `CN(Cc1cn(CCc2ccc(CN3CCC(NC(N)=NC(=O)c4nc(Cl)c(N)nc4N)CC3)cc2)nn1)C(=O)CCNC(=O)OC(C)(C)C` [Example 3.5], the IC50 is reported as 7 nM. In the case of `CN(Cc1cn(CCc2ccc(CN3CCC(NC(N)=NC(=O)c4nc(Cl)c(N)nc4N)CC3)cc2)nn1)C(=O)CCNCCOCCOCCOCCOC(c1ccccc1)(c1ccccc1)c1ccccc1` [Example 3.6], the IC50 is reported as 1 nM. For `NC(=NC(=O)c1nc(Cl)c(N)nc1N)NC1CCN(Cc2ccc(CCn3cc(COCC(CO)(CO)CO)nn3)cc2)CC1` [Example 3.7], the IC50 was 22 nM. In the case of `NC(=NC(=O)c1nc(Cl)c(N)nc1N)NC1CCN(Cc2ccc(C(=O)NCCOCCOCCOCCn3cc(COCCO)nn3)cc2)CC1` [Example 3.8], the IC50 is reported as 19 nM. With `NC(=NC(=O)c1nc(Cl)c(N)nc1N)NC1CCN(Cc2ccc(C(=O)NCCOCCOCCOCCn3cc(COC[B-](F)(F)F)nn3)cc2)CC1` [Example 3.9] the IC50 was 20 nM. In the case of `NC(=NC(=O)c1nc(Cl)c(N)nc1N)NC1CCN(Cc2ccc(C(=O)NCCOCCOCCOCCn3cc(CN4CCNCC4)nn3)cc2)CC1` [Example 3.10], the IC50 is reported as 23 nM. Work on `NC(=NC(=O)c1nc(Cl)c(N)nc1N)NC1CCN(Cc2ccc(-n3cc(COCCO)nn3)cc2)CC1` [Example 3.11] yielded an IC50 of 6 nM. In the case of `NC(=NC(=O)c1nc(Cl)c(N)nc1N)NC1CCN(Cc2ccc(-n3cc(CCC(=O)N(CCO)CCO)nn3)cc2)CC1` [Example 3.12], the IC50 is reported as 5 nM. `NC(=NC(=O)c1nc(Cl)c(N)nc1N)NC1CCN(Cc2ccc(-n3cc(CCC(=O)O)nn3)cc2)CC1` [Example 3.13] showed an IC50 of 57 nM. Work on `NC(=NC(=O)c1nc(Cl)c(N)nc1N)NC1CCN(Cc2ccc(-n3cc(COC[B-](F)(F)F)nn3)cc2)CC1` [Example 3.14] yielded an IC50 of 6 nM. `CN(C)Cc1cn(-c2ccc(CN3CCC(NC(N)=NC(=O)c4nc(Cl)c(N)nc4N)CC3)cc2)nn1` [Example 3.15] was tested, and the IC50 was 2 nM. With `NC(=NC(=O)c1nc(Cl)c(N)nc1N)NC1CCN(Cc2ccc(-n3cc(CCC(=O)N(CCOCCOCCO)CCOCCOCCO)nn3)cc2)CC1` [Example 3.16] the IC50 was 18 nM. For `CC(C)(C)[Si](C)(C)OCCN(CCO[Si](C)(C)C(C)(C)C)C(=O)c1ccc(=O)n(CCc2cn(-c3ccc(CN4CCC(NC(N)=NC(=O)c5nc(Cl)c(N)nc5N)CC4)cc3)nn2)c1` [Example 3.17], the IC50 was 3 nM. `CN(Cc1cn(-c2ccc(CN3CCC(NC(N)=NC(=O)c4nc(Cl)c(N)nc4N)CC3)cc2)nn1)C(=O)CCNC(=O)OC(C)(C)C` [Example 3.18] showed an IC50 of 5 nM. `NC(=NC(=O)c1nc(Cl)c(N)nc1N)NC1CCN(Cc2ccc(-n3cc(COCC(CO)(CO)CO)nn3)cc2)CC1` [Example 3.19] gave an IC50 of 8 nM. `CN(Cc1cn(-c2ccc(CN3CCC(NC(N)=NC(=O)c4nc(Cl)c(N)nc4N)CC3)cc2)nn1)C(=O)CCNCCOCCOCCOCCOC(c1ccccc1)(c1ccccc1)c1ccccc1` [Example 3.20] was tested, and the IC50 was 1 nM.
